Measurements reported in patent publication US20070135488A1, “Amlodipine nicotinate and process for the preparation thereof” (priority 2002, published 2007).
Read-outs that look alike come from different tables or passages of the source.

Columns and labels:
[1] = Chemical stability (stability test under stress condition); format: physicochemical; conditions: tablets in sealed vials, 50° C., 60% relative humidity, three weeks, TLC
Method: In order to assess the chemical stability, amlodipine besylate and amlodipine nicotinate were blended in a powder vehicle and formed into tablets. The vehicle for tablets comprised microcrystalline cellulose and anhydrous dibasic calcium phosphate in 50:50. The tablets were then stored in sealed vials at 50° C. and at 60% relative humidity for three weeks.
FIGS. 4A and 4B show H-NMR charts of amlodipine besylate before and after the stability test, respectively, and FIGS. 5A and 5B show H-NMR charts of amlodipine nicotinate before and after the stability test, respectively. The peaks on NMR of amlodipine besylate are as follows: […]

[2] = Processability test (stickiness to tablet punch); format: physicochemical; conditions: amount adhering to tablet punch; for Stickiness: Amlodipine(μg)/cm^2 (tablet): average from slope over runs of 50-300 tablets
Method: Using a conventional tablet making machinery, fifty tablets containing calcium sulphate dihydrate, microcrystalline cellulose and amlodipine nicotinate dihydrate (47.5:47.5:5) were produced. The material adhering to the tablet punch was then extracted using methanol and the amount was measured spectrometrically. This procedure was then repeated for runs of 100, 150, […], 250 and 300 tablets. After each run the amount of material adhering to the tablet punch was measured in the same process as above. The values were plotted and an average value was calculated from the slope of the line produced. The same procedure was then repeated for amlodipine besylate. The amount of amlodipine measured as adhering to the tablet punch is shown in Table 2 for amlodipine nicotinate dihydrate with relative to amlodipine besylate.

[3] = Hygroscopicity test; format: physicochemical; conditions: 60% relative humidity, 50° C., 14 days
Method: 1.0 g of amlodipine besylate prepared in accordance with U.S. Pat. No. 4,879,303 and 1.0 g of amlodipine nicotinate dihydrate obtained in Example 1 were exposed to 60% relative humidity at 50° C. for 14 days.

[4] = Solubility measurement (water solubility and pH at saturation); format: physicochemical; conditions: distilled water, room temperature; for solubility: ultrasonic waves, maximal solubilized amount
Method: Water solubilities were measured for amlodipine besylate prepared in accordance with U.S. Pat. No. 4,879,303 and amlodipine nicotinate obtained in Example 1. By using 50 ml of distilled water and ultrasonic waves, maximal solubilized amounts were measured at a room temperature and pHs at saturation were measured using Fischer Scientific Accument (PH meter 15).

[5] = system: spontaneously hypertensive rats (SHRs); experiment: In vivo anti-hypertensive activity, systolic blood pressure by tail-cuff method; parameters: species or system rat; conditions: SHR; for Maximal anti-hypertensive effect (change of systolic blood pressure) / Intensity (maximal effect of amlodipine nicotinate to maximal effect of amlodipine besylate) / ED20 (amount necessary for 20% decrease in the blood pressure) / Intensity (reverse ratio of ED20 values relative to amlodipine besylate): oral; for Maximal anti-hypertensive effect (change of systolic blood pressure): mean % ± S.E.M.
Method: Cardiovascular effects, i.e., in vivo anti-hypertensive activities, were measured for amlodipine besylate prepared in accordance with U.S. Pat. No. 4,879,303 and amlodipine nicotinate prepared in Example 1, using spontaneously hypertensive rats (SHRs), by Korea Research Institute of Chemical Technology (Screening Center, #100, Jang-dong, Yuseong-gu, Daejeon).
Male SHRs (Charles Rever Co., Japan) aged 13-14 weeks were used. Before evaluation, the SHRs were accustomed in a clean breeding chamber under conditions of a temperature of 22.5±1° C., a relative humidity of 55±5% and a lighting time of 12 hour intervals.
The SHRs having a systolic blood pressure over 170 mmHg were divided into 7 groups, i.e., Test Groups 1 to 3 (for amlodipine besylate), Test Groups 4 to 6 (for amlodipine nicotinate) and a Control Group. Each Test Group and Control Group consisted of 6-8 SHRs (n=6-8).
The test compounds were dissolved in distilled water to prepare test solutions immediately prior to administration. The test solutions of amlodipine besylate and amlodipine nicotinate were prepared by dissolving 1, 3, and 10 mg/kg in distilled water (0.5 ml/100 g rat), respectively, and then administered orally to each Test Group. The vehicle (distilled water) was administered to Control Group.
The systolic blood pressure was measured with Multichannel 8000 (TSE Co., Germany), using a tail-cuff method. That is, the systolic blood pressures of a tail artery of each rat were measured before the administration of the test solutions and after 2, 4, 6, 8, 10, and 24 hours from the administration thereof. In order to facilitate the measurement of blood pressures, the test animals of each Group underwent warming at 37° C. for about 10 minutes before the measurements.
The results of the foregoing test were expressed by a mean percentage and standard error (mean %±S.E.M.). Statistical analysis of the test results were conducted by an unpaired t-test and ANOVA (one-way analysis of variance) with Sigma Stat program (Jandel Co., USA). The secondary evaluations were conducted by a Dunnett's multiple comparison test.

[6] = Photostability; format: physicochemical; conditions: 25-30° C., 2 weeks, incandescent lamp (220V, 100 W) 30 cm above
Method: 1.0 g of amlodipine besylate prepared in accordance with U.S. Pat. No. 4,879,303 and 1.0 g of amlodipine nicotinate dihydrate obtained in Example 1, which were placed in glass schales (100×20 mm), were exposed at 25-30° C. for 2 weeks under an incandescent lamp (220V, 100 W) that was placed at 30 cm above the samples. […] FIGS. 6A and 6B show H-NMR charts of amlodipine besylate before and after the photostability test, respectively. The peaks on NMR of amlodipine besylate are as follows: […]

[7] = 1 mg/kg, listed as Nicotinate salt, dihydrate
[8] = listed as amlodipine nicotinate, dihydrate

SMILES: CCOC(=O)C1=C(COCCN)NC(C)=C(C(=O)OC)C1c1ccccc1Cl (centres unmarked) [Amlodipine nicotinate, amlodipine nicotinate dihydrate]
- breakdown products after stability test ([1]; dihydrate): no breakdown product
- Stickiness: Amlodipine(μg)/cm^2 (tablet) ([2]; dihydrate): 0.44 μg/cm^2 (tablet)
- Stickiness relative to besylate ([2]; dihydrate): 36.7%
- hygroscopicity (state after exposure) ([3]; dihydrate): remained intact
- pH at saturation ([4]; dihydrate): 7.2
- solubility ([4]; dihydrate): 6800 µg/mL
- Maximal anti-hypertensive effect (change of systolic blood pressure) [5, 7]: −10.20 ± 2.71%
- Intensity (maximal effect of amlodipine nicotinate to maximal effect of amlodipine besylate) ([5]; 1 mg/kg, dihydrate): about 1.46
- Intensity (maximal effect of amlodipine nicotinate to maximal effect of amlodipine besylate) [5, 7]: 1.46
- Intensity (maximal effect of amlodipine nicotinate to maximal effect of amlodipine besylate) ([5]; 3 mg/kg): 1.07
- Maximal anti-hypertensive effect (change of systolic blood pressure) ([5]; 3 mg/kg, listed as Nicotinate salt, dihydrate): −26.8 ± 3.22%
- Intensity (maximal effect of amlodipine nicotinate to maximal effect of amlodipine besylate) ([5]; 10 mg/kg): 1.06
- Maximal anti-hypertensive effect (change of systolic blood pressure) ([5]; 10 mg/kg, listed as Nicotinate salt, dihydrate): −40.9 ± 2.08%
- ED20 (amount necessary for 20% decrease in the blood pressure) ([5]; dihydrate): 2.19 ± 0.57 mg/kg
- Intensity (reverse ratio of ED20 values relative to amlodipine besylate) ([5]; dihydrate): 1.13
- ED20 (amount necessary for 20% decrease in the blood pressure) [5, 8]: 2.19 ± 0.57 mg/kg
- Intensity (reverse ratio of ED20 values relative to amlodipine besylate) [5, 8]: about 1.13
- color change after photostability test ([6]; dihydrate): no color change

SMILES: CCOC(=O)C1=C(COCCN)NC(C)=C(C(=O)OC)C1c1ccccc1Cl (centres unmarked) [Amlodipine besylate, amlodipine besylate, reference compound]
- breakdown products after stability test [1]: breakdown products
- Stickiness relative to besylate [2]: 100.0%
- Stickiness: Amlodipine(μg)/cm^2 (tablet) [2]: 1.20 μg/cm^2 (tablet)
- hygroscopicity (state after exposure) [3]: remained anhydrous
- pH at saturation [4]: 6.6
- solubility ([4]; water, thermodynamic from solid, read-out: Solubility): 4600 µg/mL
- ED20 (amount necessary for 20% decrease in the blood pressure) [5]: 2.48 ± 0.46 mg/kg
- Intensity (reverse ratio of ED20 values relative to amlodipine besylate) [5]: 1.00
- Maximal anti-hypertensive effect (change of systolic blood pressure) ([5]; 1 mg/kg, listed as Besylate salt): −7.0 ± 1.66%
- Maximal anti-hypertensive effect (change of systolic blood pressure) ([5]; 3 mg/kg, listed as Besylate salt): −25.0 ± 1.98%
- Maximal anti-hypertensive effect (change of systolic blood pressure) ([5]; 10 mg/kg, listed as Besylate salt): −38.7 ± 2.18%
- effect on blood pressure ([5]; oral, 1, 3 and 10 mg/kg): dose-dependently reduced blood pressures
- ED20 (amount necessary for 20% decrease in the blood pressure) ([5]; listed as amlodipine besylate): 2.48 ± 0.46 mg/kg
- color change after photostability test [6]: discolored to yellow
